Key:
[1] = system: anti-PEG antibodies (APA); details: patients with chronic refractory gout; cited from earlier work
[2] = system: anti-PEG antibodies (APA); details: mouse, in vivo
Procedure: Adult BALB/c mice (18-22 weeks, female, Charles River) were passively immunized with APA by the intravenous administration of mouse anti-PEG IgG1 (Silver Lake Research, CH2076, lot K0868) 24 hours prior to the intravenous administration of PLD (3 mg/kg, Doxil®, Janssen Products, LP). […] Other groups received PBS 0.5 hours prior to the administration of PLD as a control. At time points of 0.083, 3, 6, 24, 48, and 96 hours following PLD administration, mice were anesthetized using ketamine (100 mg/kg, i.p.) and medetomidine hydrochloride (1 mg/kg, i.p.), then sacrificed via cardiac puncture (into sodium heparin vacutainers) and cervical dislocation. The blood, liver, spleen, and lungs were collected for doxorubicin quantification.
Briefly, blood samples were collected in sodium heparin tubes at 0.083, 3, 6, 24, 48 and 96 hours after the administration of PLD. Blood was centrifuged at 1,500 g for 5 minutes to obtain plasma. Encapsulated and released doxorubicin in plasma were separated using solid phase separation. Tissues of interest were flash frozen in liquid nitrogen and stored at −80° C. until processing. Upon processing, tissues were thawed, weighed, and diluted in a 1:3 ratio with phosphate buffered saline prior to homogenizing with a Precellys 24 bead mill homogenizer (Omni International Inc, Kennesaw, GA). Samples were further processed by addition of 800 μL extraction solution (acetonitrile with 100 ng/mL daunorubicin internal standard) to 200 μL of plasma or tissue homogenate. The samples were vortexed for 10 minutes and centrifuged at 10,000 g for 10 minutes at 4° C. […] The samples were then vortexed, transferred to autosampler vials, and analyzed by high-performance liquid chromatography with fluorescence detection (HPLC-FL) set to excitation wavelength 490 nm/emission wavelength 590 nm. […] Samples that returned a concentration above the quantitative limit were diluted to fall within the quantitative range and reinjected.

time by which the vast majority of the PLD is found in the liver (delayed hepatic accumulation) [2] [h] | Substance | fraction of patients that developed APA leading to rapid clearance of the enzyme from the blood [1]
– | pegloticase | roughly one-third
3 | polyethylene glycol [PEG 10 kDa] | –
24 | polyethylene glycol [PEG 20 kDa] | –
96 | polyethylene glycol [PEG 40 kDa] | –
